In US12077503B2, “Substituted cyclic amides and their use as herbicides” (FMC CORPORATION, priority 2015, dated 2024) one finds pest or weed control data, which are given here for 29 molecules.

Each structure is given as a SMILES string. Like-named read-outs stand apart in the source and are kept apart here.

What all share (assay): Test B flooded paddy test
What all share (assay type): in vivo

Experiment [1] concerns rice (Oryra sativa). As to conditions: Oryza sativa, Flood, 250 g ai/ha, read-out: Rice plant response rating. Put shortly: (§1)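 Evaluation by eye, against controls, occurred 13–15 d post-treatment in a greenhouse, using a 0 (no effect) to 100 (complete control) scale. Application was into the paddy water, 3 cm deep over the soil, on 2-leaf plants.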
Experiment [2] has as its system sedge, umbrella (small-flower umbrella sedge, Cyperus difformis). The conditions noted are these: Cyperus difformis, Flood, 250 g ai/ha, read-out: Sedge, Umbrella plant response rating. Put shortly: as §1
Experiment [3] deals with ducksalad (Heteranthera limosa). The conditions noted are these: Heteranthera limosa, Flood, 250 g ai/ha, read-out: Ducksalad plant response rating. Put shortly:
as §1

The test system of experiment [4] is barnyardgrass (Echinochloa crus-galli). The conditions noted are these: Echinochloa crus-galli, Flood, 250 g ai/ha, read-out: Barnyardgrass plant response rating. In short, it runs like this: as §1
Where [5] appears, read: scale of 0 to 100 where 0 is no effect and 100 is complete control.
The mark [6] stands for this setting: 0 to 100 scale where 0 is no effect and 100 is complete control.

Regarding `CCOc1ccc([C@H]2CN(C)C(=O)[C@@H]2C(=O)Nc2ccccc2F)cc1` [Compound 903], the pest or weed control at 250 g/ha in experiment [1] (setting [5]), in experiment [2] (setting [5]), in experiment [3] (setting [5]) and in experiment [4] (setting [5]) was 0% in each case.
`CCOc1ccc([C@H]2CNC(=O)[C@@H]2C(=O)Nc2ccccc2F)cc1` [Compound 906]: the pest or weed control at 250 g/ha in experiment [1] (setting [5]), in experiment [2] (setting [5]), in experiment [3] (setting [5]) and in experiment [4] (setting [5]) was 0% in each case.
`CCOc1ccc([C@H]2CNC(=O)[C@@H]2C(=O)Nc2cccc(F)c2F)cc1` [Compound 907]: the pest or weed control at 250 g/ha in experiment [1] (setting [5]) came out at 0%; in experiment [2] (setting [5]), 0%; in experiment [3] (setting [5]) it was 50%; in experiment [4] (setting [5]), 0%.
With `Cc1cc(C)cc([C@H]2CNC(=O)[C@@H]2C(=O)Nc2ccccc2C(F)(F)F)c1` [Compound 909], the pest or weed control at 250 g/ha amounted to 0% in experiment [1] (setting [5]), 0% in experiment [2] (setting [5]), 70% in experiment [3] (setting [5]) and 40% in experiment [4] (setting [5]).
On to `Cc1cc(C)cc([C@H]2CN(C)C(=O)[C@@H]2C(=O)Nc2ccccc2F)c1` [Compound 910], for which the pest or weed control at 250 g/ha in experiment [1] (setting [5]) stood at 0%; in experiment [2] (setting [5]), 0%; in experiment [3] (setting [5]) it was 85%; in experiment [4] (setting [5]) it was 70%.
Consider `Cc1cc(C)cc([C@H]2CN(C)C(=O)[C@@H]2C(=O)Nc2ccccc2C(F)(F)F)c1` [Compound 912], for which the pest or weed control at 250 g/ha in experiment [1] (setting [5]) amounted to 0%; in experiment [2] (setting [5]), 0%; in experiment [3] (setting [5]), 50%; in experiment [4] (setting [5]) it was 50%.
With `CN1CC[C@H](c2ccc(F)cc2)[C@@H](C(=O)Nc2ccccc2F)C1=O` [Compound 917], the pest or weed control at 250 g/ha worked out at 0% in experiment [1] (setting [5]), 0% in experiment [2] (setting [5]), 40% in experiment [3] (setting [5]) and 0% in experiment [4] (setting [5]).
Regarding `COc1ccc(CN2CC[C@H](c3ccc(F)cc3)[C@@H](C(=O)Nc3cccc(F)c3F)C2=O)cc1` [Compound 919], the pest or weed control at 250 g/ha in experiment [1] (setting [5]), in experiment [2] (setting [5]), in experiment [3] (setting [5]) and in experiment [4] (setting [5]) was 0% throughout.
For the molecule `O=C(Nc1cccc(F)c1F)[C@H]1C(=O)N(C2CC2)CC[C@@H]1c1cccc(C(F)(F)F)c1` [Compound 925], the pest or weed control at 250 g/ha in experiment [1] (setting [5]), in experiment [2] (setting [5]), in experiment [3] (setting [5]) and in experiment [4] (setting [5]) was 0% throughout.
Turning to `Cc1cc([C@H]2CN(C)C(=O)[C@@H]2C(=O)Nc2cccc(F)c2F)ccc1Cl` [Compound 929], the pest or weed control at 250 g/ha turned out to be 0% in experiment [1] (setting [5]), 0% in experiment [2] (setting [5]), 60% in experiment [3] (setting [5]) and 40% in experiment [4] (setting [5]).
`Cc1cc([C@H]2CN(C)C(=O)[C@@H]2C(=O)Nc2ccc(F)c(F)c2F)ccc1Cl` [Compound 931]: the pest or weed control at 250 g/ha stood at 0% in experiment [1] (setting [5]), 0% in experiment [2] (setting [5]), 60% in experiment [3] (setting [5]) and 65% in experiment [4] (setting [5]).
Turning to `Cc1cc([C@H]2CN(C)C(=O)[C@@H]2C(=O)Nc2ccccc2C(F)(F)F)ccc1Cl` [Compound 932], the pest or weed control at 250 g/ha turned out to be 0% in experiment [1] (setting [5]), 0% in experiment [2] (setting [5]), 30% in experiment [3] (setting [5]) and 0% in experiment [4] (setting [5]).
For `CC(C)COc1cccc([C@H]2CN(C)C(=O)[C@@H]2C(=O)Nc2ccccc2F)c1` [Compound 1028], the pest or weed control at 250 g/ha came to 10% in experiment [1] (setting [6]), 0% in experiment [2] (setting [6]), 80% in experiment [3] (setting [6]) and 20% in experiment [4] (setting [6]).
In the case of `CC(C)COc1cccc([C@H]2CN(C)C(=O)[C@@H]2C(=O)Nc2cccc(F)c2F)c1` [Compound 1029], the pest or weed control at 250 g/ha in experiment [1] (setting [6]) was 0%; in experiment [2] (setting [6]), 0%; in experiment [3] (setting [6]), 85%; in experiment [4] (setting [6]), 0%.
On to `Cc1ccc([C@H]2CNC(=O)[C@@H]2C(=O)Nc2ccccc2S(C)(=O)=O)cc1C` [Compound 1037], for which the pest or weed control at 250 g/ha in experiment [1] (setting [6]) is 0%; in experiment [2] (setting [6]), 0%; in experiment [3] (setting [6]), 100%; in experiment [4] (setting [6]) it was 25%.
As to `Cc1ccc([C@H]2CN(C)C(=O)[C@@H]2C(=O)Nc2cccc(F)c2F)cc1C` [Compound 1039], the pest or weed control at 250 g/ha was 0% in experiment [1] (setting [6]), 0% in experiment [2] (setting [6]), 90% in experiment [3] (setting [6]) and 65% in experiment [4] (setting [6]).
For `Cc1cc([C@H]2CNC(=O)[C@@H]2C(=O)Nc2ccc(F)cc2F)ccc1C(F)(F)F` [Compound 1043], the pest or weed control at 250 g/ha in experiment [1] (setting [6]) was 0%; in experiment [2] (setting [6]), 0%; in experiment [3] (setting [6]), 90%; in experiment [4] (setting [6]) it was 0%.
As for `CN1C[C@H](c2cscn2)[C@@H](C(=O)Nc2cccc(F)c2F)C1=O` [Compound 1113], the pest or weed control at 250 g/ha was 20% in experiment [1] (setting [6]), 0% in experiment [2] (setting [6]), 30% in experiment [3] (setting [6]) and 0% in experiment [4] (setting [6]).
For `CN1C[C@H](c2csc3ccccc23)[C@@H](C(=O)Nc2cccc(F)c2F)C1=O` [Compound 1115], the pest or weed control at 250 g/ha in experiment [1] (setting [6]) was determined as 30%; in experiment [2] (setting [6]), 0%; in experiment [3] (setting [6]) it was 90%; in experiment [4] (setting [6]), 45%.
For the molecule `O=C1NC[C@H](c2csc(C(F)F)c2)[C@H]1C(=O)Nc1ccccc1F` [Compound 1118], the pest or weed control at 250 g/ha is 40% in experiment [1] (setting [6]), 0% in experiment [2] (setting [6]), 100% in experiment [3] (setting [6]) and 65% in experiment [4] (setting [6]).
`O=C1NC[C@H](c2csc(C(F)F)c2)[C@H]1C(=O)Nc1cccc(F)c1F` [Compound 1119]: the pest or weed control at 250 g/ha in experiment [1] (setting [6]) was found to be 20%; in experiment [2] (setting [6]), 50%; in experiment [3] (setting [6]), 100%; in experiment [4] (setting [6]) it was 60%.
Regarding `CN1C[C@H](c2cc(C(F)F)cs2)[C@@H](C(=O)Nc2cccc(F)c2F)C1=O` [Compound 1121], the pest or weed control at 250 g/ha in experiment [1] (setting [6]) was 10%; in experiment [2] (setting [6]) it was 0%; in experiment [3] (setting [6]) it was 100%; in experiment [4] (setting [6]), 70%.
For `CCc1cc(CC)cc([C@H]2CNC(=O)[C@@H]2C(=O)Nc2cccc(F)c2F)c1` [Compound 1139], the pest or weed control at 250 g/ha was found to be 20% in experiment [1] (setting [6]), 0% in experiment [2] (setting [6]), 30% in experiment [3] (setting [6]) and 0% in experiment [4] (setting [6]).
On to `Cc1c(F)cccc1NC(=O)[C@H]1C(=O)N(C)C[C@@H]1c1cc(F)cc(F)c1` [Compound 1140], for which the pest or weed control at 250 g/ha in experiment [1] (setting [6]) came out at 0%; in experiment [2] (setting [6]), 0%; in experiment [3] (setting [6]) it was 100%; in experiment [4] (setting [6]) it was 75%.
As for `CCc1cc([C@H]2CNC(=O)[C@@H]2C(=O)Nc2cccc(F)c2F)cs1` [Compound 1155], the pest or weed control at 250 g/ha in experiment [1] (setting [6]) stood at 20%; in experiment [2] (setting [6]) it was 0%; in experiment [3] (setting [6]), 100%; in experiment [4] (setting [6]), 50%.
Consider `CCc1cc([C@H]2CN(C)C(=O)[C@@H]2C(=O)Nc2cccc(F)c2F)cs1` [Compound 1157], for which the pest or weed control at 250 g/ha in experiment [1] (setting [6]) was determined as 0%; in experiment [2] (setting [6]), 0%; in experiment [3] (setting [6]), 98%; in experiment [4] (setting [6]), 55%.
As to `CN1CC[C@H](c2cccc(C(F)(F)F)c2)[C@@H](C(=O)Nc2cccc(F)c2Cl)C1=O` [Compound 1158], the pest or weed control at 250 g/ha is 0% in experiment [1] (setting [6]), 0% in experiment [2] (setting [6]), 80% in experiment [3] (setting [6]) and 60% in experiment [4] (setting [6]).
Consider `Cc1nc([C@H]2CNC(=O)[C@@H]2C(=O)Nc2ccccc2F)cs1` [Compound 1179], for which the pest or weed control at 250 g/ha in experiment [1] (setting [6]) was determined as 0%; in experiment [2] (setting [6]) it was 0%; in experiment [3] (setting [6]), 40%; in experiment [4] (setting [6]), 0%.
`Cc1cc([C@H]2CN(C)C(=O)[C@@H]2C(=O)Nc2ccccc2F)on1` [Compound 1195]: the pest or weed control at 250 g/ha in experiment [1] (setting [6]) stood at 20%; in experiment [2] (setting [6]), 0%; in experiment [3] (setting [6]), 0%; in experiment [4] (setting [6]), 20%.
